These are literature values, as cited in patent US6432422B1, “Creams containing vitamin D3 derivatives” (Chugai Seiyaku Kabushiki Kaisha, priority 1997, dated 2002).

[1] abbreviates: organic solvents such as ethanol and chloroform.

Consider `C=C1/C(=C\C=C2/CCC[C@]3(C)[C@@H]([C@H](C)OCCC(C)(C)O)CC[C@@H]23)C[C@@H](O)C[C@@H]1O` [Maxacalcitol, 1α,3β-dihydroxy-20α-(3-hydroxy-3-methylbutyloxy)-9,10-seco-5,7,10(19)-pregnatriene], for which the “effects on epidermal cells” value with epidermal cells was “epidermal cell growth-inhibiting and differentiation-inducing effects”. Also, for the setting “aqueous solutions”, the “stability in aqueous solutions” value is listed as “unstable in aqueous solutions”. In addition, under “base materials such as petrolatum”, the “stability in base materials” value was “very high stability”. Under setting [1], the “solubility in organic solvents” value is “highly soluble” and the “stability in organic solvents” value is listed as “dramatically improved stability”. For the same compound, the solubility in water result (water) is on record as “scarcely soluble in water”.
